Legend:
Npc1−/− mice = assay: Coat condition of Npc1−/− mice; format: in vivo, mouse; details: 0.1 g/kg in chow from weaning, nine weeks of age
Source text: Separate groups of Npc1^-/- and Npc1^+/+ mice were left untreated, as controls.

Npc1−/− mouse = assay: Lifespan and symptom onset of Npc1−/− mouse; format: in vivo
Source text: Separate groups of Npc1^−/− and Npc1^+/+ mice were left untreated, as controls.

[1] = system: Mucopolysaccharidosis Type IIIB (MPS IIIB) patient fibroblasts; assay: Lysosomal volume via LysoTracker, MPS IIIB fibroblasts; format: cell-based, human; details: 1 mM, 6 days
[2] = system: Sandhoff disease patient fibroblasts; assay: Glycosphingolipid (GSL) levels by HPLC, Sandhoff fibroblasts; format: cell-based, human; details: 1 mM for 6 days
[3] = system: Tay-Sachs disease patients; assay: Case studies, Tay-Sachs disease patients (SARA, SCAFI, MoCA); format: in vivo, human
Source text: For example, to evaluate overall neurological status, mDRS, a four-domain scale (ambulation, manipulation, language and swallowing), may be applied. Cerebellar function may be evaluated using SARA, an eight-item clinical rating scale (gait, stance, sitting, speech, fine motor function and taxis; range 0-40, where 0 is the best neurological status and 40 the worst), and SCAFI, comprising the 8-m-Walking-Time (8 MW; performed by having patients walking twice as quickly as possible from one line to another excluding turning), 9-Hole-Peg-Test (9HPT) and the number of “PATA” repetitions over 10 s. Subjective impairment and quality of life may be evaluated using the EQ-5D-5L questionnaire and VAS. To assess ocular motor function, 3-dimensional videooculography (EyeSeeCam) may be used to measure the peak velocity of saccades, gain of smooth pursuit, peak slow phase velocity of gaze-evoked nystagmus (gaze-holding function), peak slow phase velocity of optokinetic nystagmus, and gain of horizontal vestibulo-ocular reflex. To evaluate the cognitive state, WAIS-R or WISC-IV, and MoCA, assessing different cognitive domains, including attention and concentration, executive functions, memory, language, visuoconstructional skills, conceptual thinking, calculations, and orientation with a maximum of 30 points and a cut-off score of 26, may be used. The skilled person will know how to perform these and other such tests.
Before treatment was commenced, examination of the patient indicated a Scale for Assessment and Rating of Ataxia (SARA) score of 15.5/40. In addition, results from the patient's Spinocerebellar Ataxia Functional Index (SCAFI) analysis were: • Mean 8-meters Walking Test (8 MW): 21.6 s • MW 9-Hole Pegboard Test Dominant (9HPTD) (right): 48.3 s • MW 9-Hole Pegboard Test Non-Dominant (9HPTND): 44.9 s • MW PATA Word Test: 20 • Montreal Cognitive Assessment (MoCA): 18/30
The day following this examination, the patient was started on therapy with acetyl-leucine, at a dose of 3 g per day for the first week, followed by a dose of 5 g per day for the second week onwards.
The day of the examination, the patient was started on therapy with acetyl-leucine at a dose of 3 g per day for the first week, followed by a dose of 5 g per day for the second week onwards.
The patient was started on therapy with acetyl-leucine at a dose of 1.5 g per day for the first week, followed by a dose of 3 g per day for the second week onwards.

[4] = system: progressive supranuclear palsy patients; assay: Case studies, progressive supranuclear palsy patients; format: in vivo, human; details: for Clinical observation: 5 g per day; for Symptoms after stopping medication: about two months later
Experimental: After 27 days of acetyl-leucine treatment, medication was stopped and the patient was re-examined 60 days later. […] Gait analysis was performed before treatment commenced. […] Gait analysis was performed before treatment commenced. After 17 days of treatment, medication was stopped and the patient was re-examined 4 days later. […] Gait analysis was performed before treatment commenced. After three weeks of treatment, medication was stopped and the patient was re-examined.

SCA 1 patient = assay: Case study, Spinocerebellar Ataxia (SCA) 1; format: in vivo, human
Source text: The patient in this case study was a person who was genetically diagnosed with Spinocerebellar Ataxia (SCA) 1. Before treatment, the patient had severe problems with speaking and swallowing, tremor of both arms, spasticity and moderate ataxia of stance and gait. The patient also had problems sleeping.

[5] = system: downbeat nystagmus patients; assay: Case studies, downbeat nystagmus patients; format: in vivo, human; details: downbeat nystagmus Patient 2
[6] = system: patients with Niemann-Pick Type C (NPC); details: Bremova et al. (2015); cited from earlier work

With `CC(=O)NC(CC(C)C)C(=O)O` (racemic) [acetyl-DL-leucine] the Coat condition (Npc1−/− mice) was “smooth and glossy coat”, the “Delay of discernible indication of disease vs untreated Npc1−/− mice” value (Npc1−/− mouse; Npc1−/− mice treated from weaning) was “two” and the Lifespan (Npc1−/− mouse; Npc1−/− mouse, 0.1 g/kg from 3 weeks of age) was “statistically significant increase in lifespan”. For the same compound, the “LysoTracker fluorescence relative to untreated disease fibroblasts” value [1] was “statistically significant reduction in LysoTracker fluorescence”, the GSL levels [2] was “trend towards decreased GSL levels” and the Overall symptoms ([3]; Tay-Sachs Patient 1) was “improvement in symptoms”. For the same compound, the SARA ([3]; Tay-Sachs Patient 1, 5 g per day, after 4 months, baseline 15.5/40) was 17/40, the MoCA ([3]; Tay-Sachs Patient 1, after 4 months, baseline 18/30) was 22/30 and the PATA ([3]; Tay-Sachs Patient 1, after 4 months, baseline 20) was 21. It also gave a 8MWT ([3]; Tay-Sachs Patient 1, after 4 months, baseline 21.6 sec) of 25.49 s, a 9HPTND ([3]; Tay-Sachs Patient 1, after 4 months, baseline 44.9 sec) of 47.09 s and a 9HPTD ([3]; Tay-Sachs Patient 1, after 4 months, baseline 48.3 sec) of 48.67 s. For the same compound, the Clinical observation ([3]; Tay-Sachs Patient 1, after four months) was “stable condition with slightly improved cognitive function but had deterioration of stance, gait and fine motor function”, the Clinical observation ([3]; Tay-Sachs Patient 1, after one month) was “improved fine motor skills and reduced hand tremor” and the MoCA ([3]; Tay-Sachs Patient 1, after one month, baseline 18/30) was 21/30. The PATA ([3]; Tay-Sachs Patient 1, after one month, baseline 20) was 22, the 8MWT ([3]; Tay-Sachs Patient 1, after one month, baseline 21.6 sec) was 7 s and the 9HPTND ([3]; Tay-Sachs Patient 1, after one month, baseline 44.9 sec) was 40.1 s. The 9HPTD ([3]; Tay-Sachs Patient 1, after one month, baseline 48.3 sec) was 45.9 s, the SARA ([3]; Tay-Sachs Patient 2, 5 g per day, after one month, baseline 10.5/40) was 5/40 and the Clinical observation ([3]; Tay-Sachs Patient 2, after one month) was “increased enunciation, improved postural stability, and enhanced cognitive function”. The 8MWT ([3]; Tay-Sachs Patient 2, after one month, baseline 12.5 sec) was 9.55 s, the PATA ([3]; Tay-Sachs Patient 2, after one month, baseline 18) was 17 and the MoCA ([3]; Tay-Sachs Patient 2, after one month, baseline 21/30) was 25/30. The 9HPTD ([3]; Tay-Sachs Patient 2, after one month, baseline 21.5 sec) was 34.97 s, the 9HPTND ([3]; Tay-Sachs Patient 2, after one month, baseline 35.5 sec) was 39.34 s and the SARA ([3]; Tay-Sachs Patient 3, 3 g per day, after one month, baseline 36/40) was 33/40. The Clinical observation ([3]; Tay-Sachs Patient 3, after one month) was “increased fine motor skills”, the mRDS ([3]; Tay-Sachs Patient 3, after one month, baseline 18/24) was 16/24 and the EQ-5D-5L visual scale ([3]; Tay-Sachs Patient 3, after one month, baseline 50) was 60. The 8MWT ([3]; Tay-Sachs Patient 3, after one month, with support of one arm, baseline 18.1 (only with strong support)) was 11.75 (with support, the “Symptoms after suspension of treatment” value ([4]; PSP Patient 1) was “symptoms worsened” and the Clinical observation ([4]; PSP Patient 1, 27 days of treatment) was “significant reduction of dizziness and slight improvement of gait”. For the same compound, the “PSPRS Score” value ([4]; PSP Patient 1, re-examined about two months later) was “remained stable”, the Clinical observation ([4]; PSP Patient 2, 17 days of treatment, re-examined 4 days after stopping) was “no significant improvement of gait or hypokinetic rigid syndrome” and the “Symptoms after stopping medication” value ([4]; PSP Patient 2) was “no deterioration of symptoms”. The “Coefficient of variation (temporal)” value ([4]; PSP Patient 2, after 17 days of treatment, before 8.5) was 6.6, the Track width ([4]; PSP Patient 2, after 17 days of treatment, before 10.3) was 9.3 cm and the “Functional Gait Assessment” value ([4]; PSP Patient 2, after 17 days of treatment, before 15/30) was 15/30. It also gave a Double stance ([4]; PSP Patient 2, after 17 days of treatment, before 34.5) of 28.6%, a speed ([4]; PSP Patient 2, after 17 days of treatment, before 51) of 68 cm/s and a Step cycle length ([4]; PSP Patient 2, after 17 days of treatment, before 66) of 82 cm. For the same compound, the cadence ([4]; PSP Patient 2, after 17 days of treatment, before 93) was 99 steps/minute, the Max. speed ([4]; PSP Patient 2, after 17 days of treatment, before 123) was 98 cm/s and the Clinical observation ([4]; PSP Patient 3, 17 days of treatment, re-examined 4 days after stopping) was “no significant improvement of gait or hypokinetic rigid syndrome”. The “Symptoms after stopping medication” value ([4]; PSP Patient 3) was “no deterioration of symptoms”, the “Coefficient of variation (temporal)” value ([4]; PSP Patient 3, after 17 days of treatment, before 3.6) was 3.1 and the Track width ([4]; PSP Patient 3, after 17 days of treatment, before 15.5) was 15.1 cm. For the same compound, the Double stance ([4]; PSP Patient 3, after 17 days of treatment, before 25.8) was 24.3%, the “Functional Gait Assessment” value ([4]; PSP Patient 3, after 17 days of treatment, before 28/30) was 27/30 and the speed ([4]; PSP Patient 3, after 17 days of treatment, before 103) was 120 cm/s. It also gave a cadence ([4]; PSP Patient 3, after 17 days of treatment, before 106) of 112 steps/minute, a Step cycle length ([4]; PSP Patient 3, after 17 days of treatment, before 118) of 129 cm and a Max. speed ([4]; PSP Patient 3, after 17 days of treatment, before 163) of 194 cm/s. The Clinical observation ([4]; PSP Patient 4, after three weeks of treatment) was “gait with increased subjective security and with reduced frequency of falls”, the “Functional Gait Assessment” value ([4]; PSP Patient 4, after 3 weeks of treatment) was 14/30 and the “Coefficient of variation (temporal)” value ([4]; PSP Patient 4, after 3 weeks of treatment, before 8.2) was 6.8. It also gave a Track width ([4]; PSP Patient 4, after 3 weeks of treatment, before 15.4) of 13.6 cm, a speed ([4]; PSP Patient 4, after 3 weeks of treatment, before 39) of 65 cm/s and a Step cycle length ([4]; PSP Patient 4, after 3 weeks of treatment, before 43) of 63 cm. It also gave a Double stance ([4]; PSP Patient 4, after 3 weeks of treatment, before 45.4) of 36%, a Max. speed ([4]; PSP Patient 4, after 3 weeks of treatment, before 70) of 93 cm/s and a cadence ([4]; PSP Patient 4, after 3 weeks of treatment, before 109) of 125 steps/minute. For the same compound, the Symptoms without medication ([4]; PSP Patient 4, after three months without medication) was “progression of hypokinetic-rigid syndrome”, the Symptoms (SCA 1 patient; 5 g/day, three weeks on medication) was “all symptoms significantly improved” and the Side-effects (SCA 1 patient; over two years on the same dosage) was “without any side-effects”. For the same compound, the “Intensity of signs and symptoms after stopping” value (SCA 1 patient; two weeks after medication was stopped) was “the same as before therapy”, the “Self-chosen velocity (gait analysis)” value ([5]; about one month after stopping treatment, decrease from 85) was 72 cm/s and the Maximal gait velocity ([5]; about one month after stopping treatment, decrease from 155) was 113 cm/s. For the same compound, the “Self-chosen velocity (gait analysis)” value ([5]; on treatment, increase from 56) was 85 cm/s and the “Ataxia in one-month study involving 12 patients” value [6] was “symptomatic improvement of ataxia”.
